This note sets out measurements from US11890382B2, “Edible plant-derived microvesicle compositions for diagnosis and treatment of disease” (University of Louisville Research Foundation, Inc., priority 2011, dated 2024).

One data set has as its system A549 cells. As to the kind of experiment: Uptake of labeled EPNVs by A549 cells. Particulars: 37° C.; sodium azide 50 mM, 3 and 6 hour. The class given is cell-based, human. The method, then:
For uptake experiments, tumor cells were grown in 12-well plates with Eagle's minimal essential medium (EMEM) in the presence of 10% fetal bovine serum (FBS) for 24 h. […] After washing with cold PBS 5×, cells were trypsinized with 0.25% Trypsin-EDTA (Invitrogen, Carlsbad, CA) and washed an additional two time. Finally, the cells were resuspended in flow cytometry buffer and analyzed by flow cytometry (BD Accuri™ C6 Cytometer, New Jersey USA) and FlowJo Version 7.6 software (TreeStar Inc). The data presented were based on the mean fluorescence signal for 50,000 cells collected. All assays were performed in triplicate. […]
The cultured cells were then washed with PBS 3×. The percentages of PKH26^+ cells were quantified by FACS analysis (BD Accuri™ Flow Cytometer) and FlowJo Version 7.6 software (TreeStar Inc.).
After washing 3×, PKH26+ cells was analyzed using FACS.
After washing 3× with PBS (pH7.4), PKH26^+ cells were determined by FACS analysis as previously described. Cells exposed to the vehicle (PBS; pH 7.4), served as a control for intrinsic fluorescence, both in the presence and the absence of 50 mM sodium azide. The data were analyzed by FACS (BD Accuri™ Flow Cytometer) and FlowJo Version 7.6 software (TreeStar Inc). […]

For data set [1], the system named is CT26, SW620 and 4T1 tumors. Description: EPNV mediated targeting and therapy, statements for all three tumor models. The note with it: mouse. The procedure:
In the first set experiments, six-week-old female BALB/c-SCID mice (Jackson Lab) were injected subcutaneously with the human colon cancer SW620 cell line (5.0×10^6 cells/mouse in 50 μl of PBS). In the second set of experiments, six-week-old female BALB/c mice (Jackson Lab) were injected subcutaneously with murine colon cancer CT26 cell line (1.0×10^6 cells/mouse in 50 μl of PBS). In the third set of experiments, six-week-old female BALB/c mice (Jackson Lab) were injected at a mammary fat pad with the murine breast tumor 4T1cell line (1.0×10^6 cells/mouse in 50 μl of PBS). […] Growth of the tumors was measured.

Data set [2] deals with colitis-associated cancer (CAC). As to the kind of experiment: AOM/DSS colitis-associated colon cancer model. The class given is in vivo, mice. The note with it: gavaged at 4 mg/kg every other day for 3 weeks. The method, then:
Colitis-associated colorectal cancer (CAC) was induced as described below. Six to seven week old female mice were injected intraperitoneally (IP) with 12.5 mg/kg azoxymethane (AOM; Sigma-Aldrich Chemical Co, St. Louis, MO). Beginning on the same day, mice were provided […] dextran sulfate sodium (DSS; MP Biomedicals, Solon, OH, molecular weight 35,000-50,000 […]) water for 7 days followed by 14 days of untreated drinking water. Mice were subjected to two more DSS water—untreated drinking water cycles followed by untreated water for 28 days. […] At the termination of the study, mice were sacrificed by CO2 asphyxiation and all organs were carefully inspected for macroscopic pathological lesions. The intestines, liver, and spleen were removed, and fixed in 10% buffered formalin for a minimum of 24 h. The colon was excised, flushed with saline, the length measured, cut open longitudinally, flattened on filter paper and washed with saline. Macroscopic inspection of the colons was carefully carried out, with the number, size and location of visible tumors recorded.
Mice received a single injection of azoxymethane (AOM, 10 mg/kg body weight), followed by administration of three cycles of dextran sulfate sodium (DSS, 2% in water) as outlined in FIG. 4.

In the next data set the test system is LPS induced septic shock. Description: LPS mouse septic shock model. The format is in vivo, C57BL/6 mice. The note with it: amount equal to that in GELP-Cur; PBS 9/10. The source says: PBS and GELPs alone (equal to the amount in GELPs-Cur) were used as controls. Mouse mortality was monitored over a period of 4 days.
Using an identical treatment protocol as described above, GELP-Cur-treatment led to 100% protection of C57BL/6 mice (10 mice/group) against LPS induced sepsis in a murine model.

Data set [3] is described as follows: Liver enzymes (ALT, GST) after oral treatment. The format is in vivo, mice. The note with it: last day of treatment. The source says: At least ten mice were included per group.
Arthritis was induced using a standard protocol.

With `CN(C)CCCN1c2ccccc2Sc2ccc(Cl)cc21` [chlorpromazine], in the data set on A549 cells, the “effect of inhibitor on uptake of PKH26-EPNV by A549 cells” value (“effect of inhibitor” for short) was “greatly diminished”.
Take `CC(=O)O[C@H]1C(=O)[C@@]2(C)[C@H]([C@H](OC(=O)c3ccccc3)[C@]3(O)C[C@H](OC(=O)[C@H](O)[C@@H](NC(=O)c4ccccc4)c4ccccc4)C(C)=C1C3(C)C)[C@]1(OC(C)=O)CO[C@@H]1C[C@@H]2O` [PTX, paclitaxel]: in data set [1], the “in vivo biodistribution in sacrificed tumor bearing mice” value is “mainly targeted liver and spleen”.
In the case of `COc1ccc2c(c1)c(CC(=O)O)c(C)n2C(=O)c1ccc(Cl)cc1` [indomethacin], the “effect of inhibitor” value in the data set with A549 cells is “did not affect”.
On the same count and under the same terms, with `C=C1[C@@H](C)[C@H]2[C@H](Cc3ccccc3)NC(=O)[C@]23[C@H](OC(C)=O)/C=C/[C@@](C)(O)C(=O)[C@@H](C)C/C=C/[C@H]3[C@@H]1O` [cytochalasin D] the entry was “greatly diminished”; with `N=C(N)NC(=O)c1nc(Cl)c(N)nc1N` [Amiloride], “did not affect”; with `COC(=O)Nc1nc2ccc(C(=O)c3cccs3)cc2[nH]1` [nocodazole], “greatly diminished”.
With `COc1cc(/C=C/C(=O)CC(=O)/C=C/c2ccc(O)c(OC)c2)ccc1O` [free curcumin, curcumin], the “average tumor number per mouse” value in data set [2] is reported as 8.5. Also, the mice died in the data set with LPS induced septic shock is recorded as 8/10. For the same compound, the “liver enzyme ALT versus PBS group” value in data set [3] (ALT (36±8.1 U/I)) is “not significantly different”. In addition, in data set [3] (GST (25±5.2)), the “liver enzyme GST versus PBS group” value is given as “not significantly different”.
On to `CO/C1=C\C(C)=C\[C@@H](C)[C@@H](O)[C@@H](C)C/C(C)=C/C=C/[C@H](OC)[C@@H]([C@@H](C)[C@@H](O)[C@H](C)[C@@]2(O)C[C@@H](O)[C@H](C)[C@@H](C(C)C)O2)OC1=O` [bafilomycin A1], for which the “effect of inhibitor” value in the data set with A549 cells was “markedly inhibited”.
